Reference: patent publication EP4793292A1, “POLYPEPTIDE DERIVATIVE, PHARMACEUTICAL COMPOSITION THEREOF AND USE THEREOF” (Biocells (Beijing) Biotech Co., Ltd., priority 2023, dated 2025)
Starred links: 1 amine or outer side, 2 acyl side, 3 side chain; linkers in the order of their positions; H or OH if unused. Non-standard residues stand in square brackets, D forms with d. Residues, ends and D or L forms follow the SMILES beside them. Groups on a side chain read outwards from the residue. No end group written: not given here. *: point of attachment. C18 diacid = O=C(O)CCCCCCCCCCCCCCCCC(=O)*; γGlu = O=C(O)[C@H](CCC(=O)[*:2])N[*:1]; Lauroyl = CCCCCCCCCCCC(=O)*; AEEA = NCCOCCOCC(=O)O

What was measured:
[1] = tested on: rats with chronic spinal cord injury; experiment: BBB locomotor scoring in rats with chronic spinal cord injury; assay type: in vivo; conditions: 2 mg/kg subcutaneous daily; days 1-14 after surgery (acute and subacute phase), FIG. 4
Procedure: Female SD rats (250-270 g) were randomly grouped after being weighed. After the dorsal T10 segment lamina of the rats was removed, spinal cord contusion was performed on rats in each spinal cord injury (SCI) surgery group, while for rats in the sham operation (sham) group, only the T10 segment lamina was removed without contusion. Rats with a BBB locomotor score > 1 on day 1 after spinal cord injury surgery were excluded, and the remaining rats were randomly grouped and subcutaneously injected daily with: equal volume of physiological saline (vehicle control), PW5 (2 mg/kg), and PW337 (2 mg/kg); rats in the sham operation group were not injected. BBB scoring was performed weekly after spinal cord injury surgery.

[2] = Body weight of rats after spinal cord injury (SCI) surgery; assay type: in vivo; conditions: 1 mg/kg subcutaneous daily, female SD rats, FIG. 2
Procedure: Female SD rats (250-270 g) were randomly grouped after being weighed. After the dorsal T10 segment lamina of the rats was removed, spinal cord contusion was performed on rats in each spinal cord injury (SCI) surgery group, while for rats in the sham operation (sham) group, only the T10 segment lamina was removed without contusion. Rats with a BBB locomotor score > 1 on day 1 after spinal cord injury surgery were excluded, and the remaining rats were randomly grouped and subcutaneously injected daily with: equal volume of physiological saline (vehicle control), PW5 (1 mg/kg), and PW337 (1, 2, 4 mg/kg); rats in the sham operation group were not injected. The body weight of the rats was measured weekly after spinal cord injury surgery, and BBB scoring and open field activity tests were performed.

[3] = Determination of the half-life of polypeptides in rats (plasma LC-MS/MS); assay type: in vivo; design: AUClast (0-120 min): unit not given here; conditions: male SD rats, intravenous 4 mg/kg; for 30 min blood drug concentration / level at 0.5 h: 30 min after injection; for half-life / level at 0.5 h: rat, plasma; for level at 0.5 h: read-out: 30 min blood drug concentration
Procedure: Plasma sample collection method: 2 male SD rats (280-300 g) were intravenously injected with PW5, PW6, PW182, and PW337 respectively, the pure peptide dose was 4 mg/kg, and the dosing volume was 2 mL/kg. At 0.5 min, 2 min, 5 min, 10 min, 15 min, 30 min, 60 min, and 120 min after intravenous injection of the drug via the tail vein, blood (400 µL/time) was collected through an indwelling jugular vein catheter into anticoagulant tubes containing EDTA-K2, and 100x protease inhibitor (1:50, v:v; Roche, 11873580001) was added. Whole blood samples were placed on ice and centrifuged (3200 g, 4°C, 10 min) within 1 hour after blood collection. Plasma was taken into a pre-cooled centrifuge tube, protease inhibitor (1:50, v:v) was added again, mixed homogeneously, and stored at -80°C.
Plasma sample processing method: Plasma samples were pipetted into a 96-well plate (50 µL/well), pure methanol (300 µL/well) was added, and mixed by vortexing (1500 rpm, 10 min). Centrifuged (4800 g, 4°C, 10 min), the supernatant was taken into a new 96-well plate (100 µL/well), a 20% aqueous methanol solution containing 0.2% formic acid (100 µL/well) was added, and mixed by vortexing (1500 rpm, 3 min). 10.0 µL was injected for LC-MS/MS analysis to obtain the drug concentration in the samples. Instrument model: (Waters TQ-XS) Chromatographic column: SHIMADZU Shim-Pack Scepter Claris C4-300 (2.1×50 mm, 1.9 µm) Detection results: Table 3. Half-life, blood drug concentration, and AUC data of the conjugates

SH-SY5Y cells = experiment: Axonal growth of RA-differentiated SH-SY5Y cells on proteoglycan (ACAN) coating; assay type: cell-based, human; conditions: PW polypeptide 2.5 µM, 72 h, proteoglycan (ACAN)-coated plate, FIG. 1
Procedure: Therefore, RA-induced differentiated SH-SY5Y can be used to simulate neuronal axonal growth in vitro and to test the effects of PW polypeptides on axonal growth.
Preparation of culture medium for SH-SY5Y: 1) DMEM/F12 + 10% FBS + 1 × penicillin-streptomycin + 1 mM sodium pyruvate; 2) DMEM/F12 + 1% FBS + 1 × penicillin-streptomycin + 1 mM sodium pyruvate. Preparation of 50 mM retinoic acid stock solution: 15.02 mg of retinoic acid was weighed and dissolved in 1 mL of dimethyl sulfoxide (DMSO), aliquoted, and frozen at -80°C. Proteoglycan (ACAN/CSPG1) is a type of chondroitin sulfate proteoglycan (CSPG). Preparation of 1 mg/mL proteoglycan stock solution: 1 mg of ACAN solid was dissolved in 1 mL of distilled water, aliquoted, and frozen at -80°C. Preparation of PW polypeptide solution for cells (1 mM): the corresponding mass of polypeptide powder was weighed, dissolved in PBS and filtered through a 0.2 µm filter membrane, aliquoted, and frozen at -20°C.
The 1 mg/mL proteoglycan was diluted to 250 µg/mL with distilled water to coat a 24-well cell culture plate: each well was coated with 3 droplets of ACAN, 2 µL per droplet. Using the culture medium containing 10% FBS, SH-SY5Y cells were seeded in the proteoglycan-coated 24-well plate (20,000 cells/well) and incubated (37°C, 5% CO2) for 20 h. The medium was replaced with a culture medium containing 1% FBS, and PW polypeptide (2.5 µM) or an equal volume of PBS solution was added. After incubation for 72 h, the cells were fixed with 4% paraformaldehyde (room temperature, 30 min), and cell morphology was photographed and recorded using a 10× optical microscope. 20-30 cells were randomly selected under each field of view, and axonal length was measured using Image J-SNT.
Data analysis: All measured axonal lengths within each proteoglycan-coated range were averaged to serve as one data point. One-way analysis of variance and Tukey's test were used to compare the differences between groups. P<0.05 was considered as a significant difference.

Row | Molecule | BBB scores, differences among SCI, PW5 and PW337 groups [1] | body weight recovery compared with rats in the spinal cord injury (SCI) group [2] | AUClast (0-120 min) [3] | 30 min blood drug concentration [3] [ng/mL] | half-life [3] [min] | level at 0.5 h [3] [µg/mL] | effect of promoting axonal growth compared with the scrambled polypeptide (Scr, negative control) (SH-SY5Y cells) | promoting effect on axonal growth compared with PW6 (SH-SY5Y cells)
1 | CC[C@H](C)[C@H](NC(=O)[C@H](CO)NC(=O)[C@H](CCC(=O)O)NC(=O)[C@H](Cc1ccc(O)cc1)NC(=O)[C@H](CCC(=O)O)NC(=O)[C@H](CCC(N)=O)NC(=O)[C@H](CO)NC(=O)[C@H](CC(C)C)NC(=O)[C@H](CCCCN)NC(=O)[C@H](CC(C)C)NC(=O)[C@H](CO)NC(=O)[C@H](CC(=O)O)NC(=O)[C@H](CC(N)=O)NC(=O)[C@H](C)NC(=O)[C@H](CCCCN)NC(=O)[C@H](CC(C)C)NC(=O)[C@H](CCCNC(=N)N)NC(=O)[C@H](CCC(=O)O)NC(=O)[C@H](CCSC)NC(=O)[C@H](Cc1c[nH]cn1)NC(=O)[C@H](CCC(=O)O)NC(=O)[C@H](C)NC(=O)[C@H](CCSC)NC(=O)[C@H](CC(=O)O)NC(=O)[C@H](CS)NC(=O)[C@H](CCCNC(=N)N)NC(=O)[C@H](CCCNC(=N)N)NC(=O)[C@H](CCCNC(=N)N)NC(=O)[C@H](CCC(N)=O)NC(=O)[C@H](CCCNC(=N)N)NC(=O)[C@H](CCCNC(=N)N)NC(=O)[C@H](CCCCN)NC(=O)[C@H](CCCCN)NC(=O)[C@H](CCCNC(=N)N)NC(=O)CN)C(N)=O [PW-5, reference compound] | no significant differences | significantly accelerated on days 27-57 after surgery | 928 | 0 | 4.3 |  |  | 
2 | CC[C@H](C)[C@H](NC(=O)[C@H](CO)NC(=O)[C@H](CCC(=O)O)NC(=O)[C@H](Cc1ccc(O)cc1)NC(=O)[C@H](CCC(=O)O)NC(=O)[C@H](CCC(N)=O)NC(=O)[C@H](CO)NC(=O)[C@H](CC(C)C)NC(=O)[C@H](CCCCNC(=O)COCCOCCNC(=O)COCCOCCNC(=O)CC[C@H](NC(=O)CCCCCCCCCCCCCCCCC(=O)O)C(=O)O)NC(=O)[C@H](CC(C)C)NC(=O)[C@H](CO)NC(=O)[C@H](CC(=O)O)NC(=O)[C@H](CC(N)=O)NC(=O)[C@H](C)NC(=O)[C@H](CCCCN)NC(=O)[C@H](CC(C)C)NC(=O)[C@H](CCCNC(=N)N)NC(=O)[C@H](CCC(=O)O)NC(=O)[C@@H](NC(=O)[C@H](Cc1c[nH]cn1)NC(=O)[C@H](CCC(=O)O)NC(=O)[C@H](C)NC(=O)[C@H](CCSC)NC(=O)[C@H](CC(=O)O)NC(=O)[C@H](CCCNC(=N)N)NC(=O)[C@H](CCCNC(=N)N)NC(=O)[C@H](CCCNC(=N)N)NC(=O)[C@H](CCC(N)=O)NC(=O)[C@H](CCCNC(=N)N)NC(=O)[C@H](CCCNC(=N)N)NC(=O)[C@H](CCCCN)NC(=O)[C@H](CCCCN)NC(=O)[C@H](CCCNC(=N)N)NC(=O)CN)[C@@H](C)O)C(N)=O [PW-182] (H-GRKKRRQRRRDMAEHTERLKANDSLK([AEEA-AEEA-γGlu-C18 diacid])LSQEYESI-NH2) |  |  | 4927113 |  | 61.6 | 64.4 |  | 
3 | CC[C@H](C)[C@H](NC(=O)[C@H](CO)NC(=O)[C@H](CCC(=O)O)NC(=O)[C@H](Cc1ccc(O)cc1)NC(=O)[C@H](CCC(=O)O)NC(=O)[C@H](CCC(N)=O)NC(=O)[C@H](CO)NC(=O)[C@H](CC(C)C)NC(=O)[C@H](CCCCNC(=O)COCCOCCNC(=O)COCCOCCNC(=O)CC[C@H](NC(=O)CCCCCCCCCCCCCCCCC(=O)O)C(=O)O)NC(=O)[C@H](CC(C)C)NC(=O)[C@H](CO)NC(=O)[C@H](CC(=O)O)NC(=O)[C@H](CC(N)=O)NC(=O)[C@H](C)NC(=O)[C@H](CCCCN)NC(=O)[C@H](CC(C)C)NC(=O)[C@H](CCCNC(=N)N)NC(=O)[C@H](CCC(=O)O)NC(=O)[C@H](CCSC)NC(=O)[C@H](Cc1c[nH]cn1)NC(=O)[C@H](CCC(=O)O)NC(=O)[C@H](C)NC(=O)[C@H](CCSC)NC(=O)[C@H](CC(=O)O)NC(=O)[C@H](CCCNC(=N)N)NC(=O)[C@H](CCCNC(=N)N)NC(=O)[C@H](CCCNC(=N)N)NC(=O)[C@H](CCC(N)=O)NC(=O)[C@H](CCCNC(=N)N)NC(=O)[C@H](CCCNC(=N)N)NC(=O)[C@H](CCCCN)NC(=O)[C@H](CCCCN)NC(=O)[C@H](CCCNC(=N)N)NC(=O)CN)C(N)=O [PW-337] |  |  | 4157725 |  | 95.6 | 56.8 |  | 
4 | GRKKRRQRRRCDMAEHTERLKANDSLKLSQEYESI-NH2 [PW-6, reference compound] |  |  | 1787 | 0 | 2.2 |  | significant effect of promoting axonal growth | 
5 | PW-261: polypeptide derivative, SEQ ID NO: 51 (G[dR]KKR[dR]Q[dR]RRDMAEHTERLK([AEEA-γGlu-Lauroyl])ANDSLKLSQEYESI-NH2; N-terminus assumed; SMILES CCCCCCCCCCCC(=O)N[C@@H](CCC(=O)NCCOCCOCC(=O)NCCCC[C@H](NC(=O)[C@H](CC(C)C)NC(=O)[C@H](CCCNC(=N)N)NC(=O)[C@H](CCC(=O)O)NC(=O)[C@@H](NC(=O)[C@H](Cc1c[nH]cn1)NC(=O)[C@H](CCC(=O)O)NC(=O)[C@H](C)NC(=O)[C@H](CCSC)NC(=O)[C@H](CC(=O)O)NC(=O)[C@H](CCCNC(=N)N)NC(=O)[C@H](CCCNC(=N)N)NC(=O)[C@@H](CCCNC(=N)N)NC(=O)[C@H](CCC(N)=O)NC(=O)[C@@H](CCCNC(=N)N)NC(=O)[C@H](CCCNC(=N)N)NC(=O)[C@H](CCCCN)NC(=O)[C@H](CCCCN)NC(=O)[C@@H](CCCNC(=N)N)NC(=O)CN)[C@@H](C)O)C(=O)N[C@@H](C)C(=O)N[C@@H](CC(N)=O)C(=O)N[C@@H](CC(=O)O)C(=O)N[C@@H](CO)C(=O)N[C@@H](CC(C)C)C(=O)N[C@@H](CCCCN)C(=O)N[C@@H](CC(C)C)C(=O)N[C@@H](CO)C(=O)N[C@@H](CCC(N)=O)C(=O)N[C@@H](CCC(=O)O)C(=O)N[C@@H](Cc1ccc(O)cc1)C(=O)N[C@@H](CCC(=O)O)C(=O)N[C@@H](CO)C(=O)N[C@H](C(N)=O)[C@@H](C)CC)C(=O)O) |  |  |  |  |  |  | significant effect of promoting axonal growth | no significant difference
